Reference: patent US9487554B2, “Estra-1,3,5(10),16-tetraene-3-carboxamide derivatives, processes for their preparation, pharmaceutical preparations comprising them and their use for preparing medicaments” (BAYER INTELLECTUAL PROPERTY GmbH, priority 2011, dated 2016)
≈ marks a conversion by molar mass, not a printed value. Where “and” joins values, the source holds several entries; their conditions need not be identical. Equal values may be shown once. Read-outs that look alike come from different tables or passages of the source.

Key:
[1] = molecular target: Human CYP17A1 (Homo sapiens (Human), UniProt P05093); assay: Inhibition of CYP17A1 (recombinant enzyme, progesterone hydroxylation, HPLC radio detection); type: biochemical; details: for IC50: read-out: IC50 ± SD CYP17
Description: The inhibition of CYP17A1 by the test compounds was evaluated using a recombinant enzyme. Human CYP17A1 was expressed in E. coli (Ehmer, P. B. et al.; J. Steroid Biochem. Mol. Biol., 75, 57-63 (2000)). The microsomal fraction and 140 μL of phosphate buffer (50 mM Na phosphate, 1 mM MgCl2, 0.1 mM EDTA, 0.1 mM dithiothreitol, pH 7.4) were preincubated separately with a mixture of progesterone (24.95 μM) and ^3H-progesterone (0.05 μM, 101.3 Ci/mmol), […] of an NADPH regeneration system (in phosphate buffer with 10 mM NADP+, 100 mM glucose 6-phosphate and 2.5 U of glucose 6-phosphate dehydrogenase) and the appropriate test substances (in 5 μl of DMSO) at 37° C. for 5 minutes. The reaction was started by addition of the enzyme and, after 30 minutes of incubation at 37° C., stopped by addition of 50 μl of 1N hydrochloric acid.
The steroids were extracted with ethyl acetate. After evaporation of the organic phase, the steroids were taken up in acetonitrile. 16α-Hydroxyprogesterone, 17α-hydroxyprogesterone and progesterone were separated using acetonitrile/water (45:55) as mobile phase on a C18 reverse-phase chromatography column (Nucleodur C18 Gravity, 3 μm, Macherey-Nagel, Düren, Germany) on an HPLC system (Agilent 1100 Series, Agilent Technologies, Waldbronn, Germany). Detection and quantification of the steroids was carried out using a radio flow detector (Berthold Technologies, Bad Wildbad, Germany). The inhibition was calculated using the formula below: […]
Each value was calculated from at least three independent experiments. The final IC50 value was calculated as the mean of 3 or 4 independent IC50 values.

[2] = molecular target: recombinant human AKR1C3 (Homo sapiens (Human), UniProt P42330); assay: AKR1C3 enzyme inhibition assay (Coumberone to Coumberol fluorescence); type: biochemical; details: individual experimental determinations
Description: The AKR1C3-inhibitory activity of the substances of the present invention was measured in the AKR1C3 assay described in the paragraphs below.
Essentially, the enzyme activity is measured by quantification of the Coumberol from Coumberone (Halim, M., Yee, D. J., and Sames, D., J. AM. CHEM. SOC. 130, 14123-14128 (2008) and Yee, D. J., Balsanek, V., Bauman, D. R., Penning, T. M., and Sames, D., Proc. Natl. Acad. Sci. USA 103, 13304-13309 (2006)). In this test, the increase of the highly fluorescent Coumberol by NADPH—(nicotinamide adenine dinucleotide phosphate)-dependent reduction of the non-fluorescent Coumberone by AKR1C3 can be determined.
The enzyme used was recombinant human AKR1C3 (Aldo-keto reductase family 1 member C3) (GenBank Accession No. NM_003739). This was expressed in E. coli as GST (glutathione S transferase) fusion protein and purified by glutathione Sepharose affinity chromatography. The GST was removed by digestion with thrombin and subsequent size exclusion chromatography (Dufort, I., Rheault, P., Huang, X F., Soucy, P., and Luu-The, V., Endocrinology 140, 568-574 (1999)).
For the assay, 50 nl of a 100-fold concentrated solution of the test substance in DMSO were pipetted into a black low-volume 384-well microtiter plate (Greiner Bio-One, Frickenhausen, Germany), 2.0 μl of a solution of AKR1C3 in assay buffer [50 mM potassium phosphate buffer pH 7, 1 mM DTT, 0.0022% (w/v) Pluronic F-127, 0.01% BSA (w/v) and protease inhibitor cocktail (Complete, EDTA-free Protease Inhibitor Cocktail from Roche)] were added and the mixture was incubated for 15 min to allow pre-binding of the substances to the enzyme prior to the enzyme reaction. The enzyme reaction was then started by addition of 3 μl of a solution of NADPH (16.7 μM→final concentration in 5 μl of assay volume is 10 μM) and Coumberone (0.5 μM→final concentration in 5 μl of assay volume is 0.3 μM) in assay buffer, and the resulting mixture was incubated at 22° C. for the reaction time of 90 min. The concentration of the AKR1C3 was adapted to the respective activity of the enzyme preparation and adjusted such that the assay was carried out in the linear range. Typical concentrations were in the region of 1 nM. The reaction was stopped by addition of 5 μl of a stop solution consisting of the inhibitor EM-1404 [F. Labrie et al. U.S. Pat. No. 6,541,463, 2003] (2 μM→final concentration in […] is 1 μM). The fluorescence of the Coumberole was then measured at 520 nm (excitation at 380 nm) using a suitable measuring instrument (Pherastar from BMG Labtechnologies). The intensity of the fluorescence was used as a measure of the amount of Coumberole formed and thus of the enzyme activity of AKR1C3. The data were normalized (enzyme reaction without inhibitor=0% inhibition; all other assay components, but no enzyme=100% inhibition).

[3] = Thermodynamic solubility in aqueous buffer pH 6.5 (shake-flask method); type: physicochemical; details: thermodynamic from solid
Description: Determination of the Thermodynamic Solubility in Aqueous Buffer pH 6.5 (Shake-Flask Method)
The thermodynamic solubility was determined according to the shake-flask method [literature: Edward H. Kerns and Li Di (2008) Solubility Methods in: Drug-like Properties: Concepts, Structure Design and Methods, p 276-286. Burlington, Mass., Academic Press].
Here, a saturated solution of the active compound in buffer pH 6.5 was prepared and stirred for 24 h to ensure that an equilibrium between the solid and the substance in solution had formed. The solution was then centrifuged, and the concentration of the solution obtained was quantified with the aid of a calibration line.
For the sample, 2 mg of solid substance were weighed out accurately into a 4 ml glass bottle. 1 ml of phosphate buffer pH 6.5 was added. This solution was stirred on a stirrer at room temperature for 24 h. The solution was then centrifuged. To prepare the comparison for the calibration, 2 mg of solid substance were weighed out accurately and dissolved in 30 ml of acetonitrile. After a short ultrasound treatment, the solution was diluted with water to 50 ml.
Sample and comparison were quantified using HPLC with UV detection. […]
The areas of the sample and comparison injections and the calculation of the solubility (in mg/l) were determined using the HPLC software (Waters Empower 2 FR).

[4] = human CYP17A1 expressed in E. coli, mean of 3 or 4 independent IC50 values

Chain of Human CYP17A1 (P05093 whole entry): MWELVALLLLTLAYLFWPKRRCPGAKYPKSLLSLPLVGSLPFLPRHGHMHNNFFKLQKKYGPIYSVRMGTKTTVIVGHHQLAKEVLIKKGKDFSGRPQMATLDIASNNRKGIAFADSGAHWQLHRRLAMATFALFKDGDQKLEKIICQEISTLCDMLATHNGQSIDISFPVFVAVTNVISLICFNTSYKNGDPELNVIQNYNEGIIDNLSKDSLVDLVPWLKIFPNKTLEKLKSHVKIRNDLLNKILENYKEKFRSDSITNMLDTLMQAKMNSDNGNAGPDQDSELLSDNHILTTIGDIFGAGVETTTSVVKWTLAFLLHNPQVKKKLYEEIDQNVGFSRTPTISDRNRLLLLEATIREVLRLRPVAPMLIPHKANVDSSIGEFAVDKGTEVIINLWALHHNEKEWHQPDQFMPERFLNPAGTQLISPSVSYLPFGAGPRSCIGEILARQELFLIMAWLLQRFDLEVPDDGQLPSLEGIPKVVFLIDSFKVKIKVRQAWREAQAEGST
Chain of recombinant human AKR1C3 (P42330 whole entry): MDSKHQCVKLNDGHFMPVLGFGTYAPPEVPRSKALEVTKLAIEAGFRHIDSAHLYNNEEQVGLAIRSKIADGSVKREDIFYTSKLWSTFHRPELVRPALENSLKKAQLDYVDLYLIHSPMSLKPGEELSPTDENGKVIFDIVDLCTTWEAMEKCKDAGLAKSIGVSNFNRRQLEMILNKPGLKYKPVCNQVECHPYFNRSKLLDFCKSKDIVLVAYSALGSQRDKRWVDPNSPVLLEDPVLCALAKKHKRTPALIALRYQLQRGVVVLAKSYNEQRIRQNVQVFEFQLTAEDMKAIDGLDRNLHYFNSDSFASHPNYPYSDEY

Row | Compound | IC50 [1, 4] [nM] | IC50 [2] | further results
1 | CN(CCC(=O)O)C(=O)c1ccc2c(c1)CC[C@@H]1[C@@H]2CC[C@]2(C)C(c3cncc(F)c3)=CC[C@@H]12 [Example 2, N-{[17-(5-Fluoropyridin-3-yl)estra-1,3,5(10),16-tetraen-3-yl]carbonyl}-N-methyl-β-alanine] | ~200000 | 1.3 nM and 1.4 nM | % Inhibition at a concentration of 200 μM substance ([1]; human CYP17, 200 μM substance): 49%; solubility at 24 h ([3]; pH 6.5, aqueous buffer): 354 µg/mL (≈ 765 µM)
2 | C[C@]12CC[C@@H]3c4ccc(C(=O)NCCC(=O)O)cc4CC[C@H]3[C@@H]1CC=C2c1cncc(F)c1 [Example 9, N-{[17-(5-Fluoropyridin-3-yl)estra-1,3,5(10),16-tetraen-3-yl]carbonyl}-β-alanine] |  | 8.3 nM and 8.9 nM (2×) | IC50 ± SD CYP17 [1, 4]: No inhibition
3 | C[C@]12CC[C@@H]3c4ccc(C(=O)NCC(=O)O)cc4CC[C@H]3[C@@H]1CC=C2c1cncc(F)c1 [Example 10, N-{[17-(5-Fluoropyridin-3-yl)estra-1,3,5(10),16-tetraen-3-yl]carbonyl}glycine] | 15200 ± 1580 | 4.9 nM and 7.3 nM | 
4 | CC1(C)CC[C@@]2(CC[C@H]3[C@@H]4CCc5cc(C(N)=O)ccc5[C@H]4CC[C@@]32C)OC1=O [EM-1404, reference compound] |  |  | solubility at 24 h ([3]; aqueous buffer, phosphate buffer pH 6.5, room temperature, 24 h, shake-flask, read-out: solubility): 0.1 µg/mL (≈ 0.253 µM)
5 | C[C@]12CC[C@H](O)CC1=CC[C@@H]1[C@@H]2CC[C@]2(C)C(c3cccnc3)=CC[C@@H]12 [Abiraterone, abiraterone, reference compound] | 29 ± 4 |  | 
6 | C[C@@H](CC(=O)O)NC(=O)c1ccc2c(c1)CC[C@@H]1[C@@H]2CC[C@]2(C)C(c3cncc(F)c3)=CC[C@@H]12 [Example 12, (S)-3-({[17-(5-Fluoropyridin-3-yl)estra-1,3,5(10),16-tetraen-3-yl]carbonyl}amino)-butanoic acid] |  | 1.2 nM and 1.7 nM | 
7 | CN(CCC(=O)O)C(=O)c1ccc2c(c1)CC[C@H]1[C@@H]3[C@H](O)C=C(c4cncc(F)c4)[C@@]3(C)CC[C@H]21 [Example 27, N-{[17-(5-Fluoropyridin-3-yl)-15β-hydroxyestra-1,3,5(10),16-tetraen-3-yl]carbonyl}-N-methyl-β-alanine] |  | 35.3 nM and 24.2 nM | 
8 | C[C@]12CC[C@@H]3c4ccc(C(=O)NCCC(=O)O)cc4CC[C@H]3[C@@H]1CC=C2c1cncc(C(F)(F)F)c1 [Example 21, N-({17-[5-(Trifluoromethyl)pyridin-3-yl]estra-1,3,5(10),16-tetraen-3-yl}carbonyl)-β-alanine] |  | 8.5 nM | 
9 | CC(C)(CNC(=O)c1ccc2c(c1)CC[C@@H]1[C@@H]2CC[C@]2(C)C(c3cncc(F)c3)=CC[C@@H]12)C(=O)O [Example 5, 3-({[17-(5-Fluoropyridin-3-yl)estra-1,3,5(10),16-tetraen-3-yl]carbonyl}amino)-2,2-dimethylpropanoic acid] | 85500 ± 7700 | 9.1 nM and 8 nM and 4.3 nM and 3.6 nM | 
